# In patent US20260242372A1, “NOVEL IMIDAZOPYRIDINE AND PYRAZOLOPYRIDINE SULFONAMIDE DERIVATIVES” (Hoffmann-La Roche Inc., priority 2022, published 2026):
# Target: human GPR17 short isoform (Homo sapiens, UniProt Q13304)
# Test: GPR17 cAMP assay (hGPR17 cAMP, TR-FRET, antagonist mode)
# Type: cell-based
# Details: CHO-K1 cells stably expressing human GPR17 short isoform; EC80 of agonist MDL29,951; forskolin 15 μM; 30 min at room temperature
# Procedure: CHO-K1 cells stably expressing vector containing untagged human GPR17 short isoform (Roche) were cultured at 37° C./5% CO2 in DMEM (Dulbecco's Modified Eagle Medium): F-12 (1:1) supplemented with 10% foetal bovine serum and 400 μg/ml Geneticin.
# Changes in intracellular cyclic adenosine monophosphate (cAMP) levels were quantified using the Nano-TRF Detection Assay kit (Roche Diagnostics, Cat. No. 05214386001). This assay allows for direct cAMP quantification in a homogeneous solution. CAMP is detected based on time-resolved fluorescence energy transfer (TR-FRET) and competitive binding of ruthenylated cAMP and endogenous cAMP to an anti-cAMP monoclonal antibody labeled with AlexaFluor-700. The Ruthenium complex serves as the FRET donor and transfers energy to AlexaFluor-700. The FRET signal is inversely proportional to the CAMP concentration.
# CHO-GPR17S cells were detached with Accutase and resuspended in assay buffer consisting of Hank's Balanced Salt Solution (HBSS), 10 mM HEPES (4-(2-hydroxyethyl) piperazine-1-ethanesulfonic acid solution) and 0.1% bovine serum albumin (pH 7.4). The cells were seeded in black 384-well plates (Corning) at a density of 10′000 cells/20 μl assay buffer until the addition of compounds.
# Test antagonist compounds were serially diluted in dimethyl sulfoxide (DMSO) and spotted in 384-well plates. The compounds were then diluted in HBSS buffer supplemented with an EC80 concentration of MDL29,951 (3-(2-Carboxy-4,6-dichloroindol-3-yl) propionic acid) (GPR17 agonist) plus 3-Isobutyl-1-methylxanthine (IBMX) (0.5 mM final concentration) and added to the cells at room temperature. Forskolin (15 μM final concentration) was added 5 minutes after the test compounds and the cells were incubated at room temperature for 30 minutes. The assay was stopped by adding cAMP detection mix (containing detergents for cell lysis) for 90 minutes at room temperature.
# Cellular cAMP was measured using a Paradigm reader (Molecular Devices). The raw data was used to calculate the FRET signal based on the assay's P-factor as per cAMP kit instructions. The data was normalized to the maximal activity of a reference antagonist and dose response curves were fitted to the percent activity of the test compounds using a sigmoidal dose response model (Genedata Screener).
# human GPR17 short isoform, sequence (Q13304 29-367): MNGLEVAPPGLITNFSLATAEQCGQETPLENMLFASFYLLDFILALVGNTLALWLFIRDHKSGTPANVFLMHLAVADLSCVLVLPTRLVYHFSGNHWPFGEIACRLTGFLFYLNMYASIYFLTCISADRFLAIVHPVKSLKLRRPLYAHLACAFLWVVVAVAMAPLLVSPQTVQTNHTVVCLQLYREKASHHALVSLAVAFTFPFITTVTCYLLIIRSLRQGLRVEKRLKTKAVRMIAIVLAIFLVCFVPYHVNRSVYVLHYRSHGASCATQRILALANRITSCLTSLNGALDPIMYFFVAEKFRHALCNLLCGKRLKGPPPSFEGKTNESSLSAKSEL
row,IC50 [nM],Structure (SMILES)
1,5,"COc1nc(OCC(F)F)c(F)cc1NS(=O)(=O)c1cnc2cc(Br)ccn12 [Example 1, 7-bromo-N-[6-(2,2-difluoroethoxy)-5-fluoro-2-methoxy-3-pyridyl]imidazo[1,2-a]pyridine-3-sulfonamide]"
2,7,"COc1nc(OCC(F)F)c(F)cc1NS(=O)(=O)c1cnc2cc(C)ccn12 [Example 2, N-[6-(2,2-difluoroethoxy)-5-fluoro-2-methoxy-3-pyridyl]-7-methyl-imidazo[1,2-a]pyridine-3-sulfonamide]"
3,7,"COc1cc(CC#N)c(F)cc1NS(=O)(=O)c1cnc2cc(Br)ccn12 [Example 3, 7-bromo-N-[4-(cyanomethyl)-5-fluoro-2-methoxy-phenyl]imidazo[1,2-a]pyridine-3-sulfonamide]"
4,8,"COc1nc(OCC(F)F)c(F)cc1NS(=O)(=O)c1cnc2c(OC)c(C)ccn12 [Example 4, N-[6-(2,2-difluoroethoxy)-5-fluoro-2-methoxy-3-pyridyl]-8-methoxy-7-methyl-imidazo[1,2-a]pyridine-3-sulfonamide]"
5,8,"COc1nc(OCC(F)F)c(F)cc1NS(=O)(=O)c1cnc2cc(OC(F)F)ccn12 [Example 5, N-[6-(2,2-difluoroethoxy)-5-fluoro-2-methoxy-3-pyridyl]-7-(difluoromethoxy)imidazo[1,2-a]pyridine-3-sulfonamide]"
6,9,"COc1nc(OCC(F)F)c(F)cc1NS(=O)(=O)c1cnc2c(F)c(Cl)ccn12 [Example 7, 7-chloro-N-[6-(2,2-difluoroethoxy)-5-fluoro-2-methoxy-3-pyridyl]-8-fluoro-imidazo[1,2-a]pyridine-3-sulfonamide]"
7,9,"COc1nc(OC(F)F)c(F)cc1NS(=O)(=O)c1cnc2cc(Br)ccn12 [Example 8, 7-bromo-N-[6-(difluoromethoxy)-5-fluoro-2-methoxy-3-pyridyl]imidazo[1,2-a]pyridine-3-sulfonamide]"
8,11,"COc1nc(CCC(F)F)c(F)cc1NS(=O)(=O)c1cnc2cc(Cl)ccn12 [Example 9, 7-chloro-N-[6-(3,3-difluoropropyl)-5-fluoro-2-methoxy-3-pyridyl]imidazo[1,2-a]pyridine-3-sulfonamide]"
9,11,"COc1nc(NS(=O)(=O)c2cnc3cc(Br)ccn23)c(F)cc1CC(F)F [Example 10, 7-bromo-N-[5-(2,2-difluoroethyl)-3-fluoro-6-methoxy-2-pyridyl]imidazo[1,2-a]pyridine-3-sulfonamide]"
10,14,"COc1nc(CC(F)F)c(F)cc1NS(=O)(=O)c1cnc2cc(Cl)ccn12 [Example 11, 7-chloro-N-[6-(2,2-difluoroethyl)-5-fluoro-2-methoxy-3-pyridyl]imidazo[1,2-a]pyridine-3-sulfonamide]"
11,16,"COc1nc(OCC(F)F)c(F)cc1NS(=O)(=O)c1cnc2c(OC)c(Cl)ccn12 [Example 12, 7-chloro-N-[6-(2,2-difluoroethoxy)-5-fluoro-2-methoxy-3-pyridyl]-8-methoxy-imidazo[1,2-a]pyridine-3-sulfonamide]"
12,18,"COc1nc(OC(F)F)c(F)cc1NS(=O)(=O)c1cnc2cc(C)ccn12 [Example 13, N-[6-(difluoromethoxy)-5-fluoro-2-methoxy-3-pyridyl]-7-methyl-imidazo[1,2-a]pyridine-3-sulfonamide]"
13,18,"COc1nc(OCC(F)F)c(F)cc1NS(=O)(=O)c1cnc2cc(C(F)F)ccn12 [Example 14, N-[6-(2,2-difluoroethoxy)-5-fluoro-2-methoxy-3-pyridyl]-7-(difluoromethyl)imidazo[1,2-a]pyridine-3-sulfonamide]"
14,18,"COc1ccn2c(S(=O)(=O)Nc3cc(F)c(OCC(F)F)nc3OC)cnc2c1 [Example 15, N-[6-(2,2-difluoroethoxy)-5-fluoro-2-methoxy-3-pyridyl]-7-methoxy-imidazo[1,2-a]pyridine-3-sulfonamide]"
15,18,"COc1nc(OCC(F)F)c(F)cc1NS(=O)(=O)c1cnc2nc(C3CC3)ccn12 [Example 16, 7-cyclopropyl-N-[6-(2,2-difluoroethoxy)-5-fluoro-2-methoxy-3-pyridyl]imidazo[1,2-a]pyrimidine-3-sulfonamide]"
16,18,"CCc1ccn2c(S(=O)(=O)Nc3cc(F)c(OCC(F)F)nc3OC)cnc2c1 [Example 17, N-[6-(2,2-difluoroethoxy)-5-fluoro-2-methoxy-3-pyridyl]-7-ethyl-imidazo[1,2-a]pyridine-3-sulfonamide]"

row,IC50 [nM],Structure (SMILES)
1,19,"COc1cc(CC#N)c(F)cc1NS(=O)(=O)c1cnc2nc(C3CC3)ccn12 [Example 18, N-[4-(cyanomethyl)-5-fluoro-2-methoxy-phenyl]-7-cyclopropyl-imidazo[1,2-a]pyrimidine-3-sulfonamide]"
2,19,"COc1nc(OC(F)F)c(F)cc1NS(=O)(=O)c1cnc2c(OC)c(C)ccn12 [Example 19, N-[6-(difluoromethoxy)-5-fluoro-2-methoxy-3-pyridyl]-8-methoxy-7-methyl-imidazo[1,2-a]pyridine-3-sulfonamide]"
3,21,"COc1cc(CC#N)c(F)cc1NS(=O)(=O)c1cnc2cc(C)ccn12 [Example 20, N-[4-(cyanomethyl)-5-fluoro-2-methoxy-phenyl]-7-methyl-imidazo[1,2-a]pyridine-3-sulfonamide]"
4,21,"COc1nc(NS(=O)(=O)c2cnc3cc(Br)ccn23)c(F)cc1CC#N [Example 21, 7-bromo-N-[5-(cyanomethyl)-3-fluoro-6-methoxy-2-pyridyl]imidazo[1,2-a]pyridine-3-sulfonamide]"
5,23,"COc1nc(CC#N)c(F)cc1NS(=O)(=O)c1cnc2cc(Cl)ccn12 [Example 22, 7-chloro-N-[6-(cyanomethyl)-5-fluoro-2-methoxy-3-pyridyl]imidazo[1,2-a]pyridine-3-sulfonamide]"
6,23,"COc1nc(OCC(F)F)c(F)cc1NS(=O)(=O)c1cnc2n1CCC(C)C2 (stereo not shown) [Example 23, N-[6-(2,2-difluoroethoxy)-5-fluoro-2-methoxy-3-pyridyl]-7-methyl-5,6,7,8-tetrahydroimidazo[1,2-a]pyridine-3-sulfonamide]"
7,23,"COc1nc(NS(=O)(=O)c2cnc3cc(Cl)ccn23)c(F)cc1CC(F)F [Example 24, 7-chloro-N-[5-(2,2-difluoroethyl)-3-fluoro-6-methoxy-2-pyridyl]imidazo[1,2-a]pyridine-3-sulfonamide]"
8,23,"COc1nc(C2CC2)c(F)cc1NS(=O)(=O)c1cnc2cc(Cl)ccn12 [Example 25, 7-chloro-N-(6-cyclopropyl-5-fluoro-2-methoxy-3-pyridyl)imidazo[1,2-a]pyridine-3-sulfonamide]"
9,30,"COc1nc(NS(=O)(=O)c2cnc3cc(Br)ccn23)c(F)cc1OC(F)F [Example 26, 7-bromo-N-[5-(difluoromethoxy)-3-fluoro-6-methoxy-2-pyridyl]imidazo[1,2-a]pyridine-3-sulfonamide]"
10,31,"COc1nc(OCC(F)F)c(F)cc1NS(=O)(=O)c1cnc2c(C#N)c(C)ccn12 [Example 27, 8-cyano-N-[6-(2,2-difluoroethoxy)-5-fluoro-2-methoxy-3-pyridyl]-7-methyl-imidazo[1,2-a]pyridine-3-sulfonamide]"
11,31,"COc1nc(OC(F)F)c(F)cc1NS(=O)(=O)c1cnc2nc(C3CC3)ccn12 [Example 28, 7-cyclopropyl-N-[6-(difluoromethoxy)-5-fluoro-2-methoxy-3-pyridyl]imidazo[1,2-a]pyrimidine-3-sulfonamide]"
12,33,"COc1ccn2c(S(=O)(=O)Nc3cc(F)c(OC(F)F)nc3OC)cnc2c1 [Example 29, N-[6-(difluoromethoxy)-5-fluoro-2-methoxy-3-pyridyl]-7-methoxy-imidazo[1,2-a]pyridine-3-sulfonamide]"
13,35,"COc1nc(OCC(F)F)c(F)cc1NS(=O)(=O)c1cnc2n1CCC(C)C2C (stereo not shown) [Example 30, N-[6-(2,2-difluoroethoxy)-5-fluoro-2-methoxy-3-pyridyl]-7,8-dimethyl-5,6,7,8-tetrahydroimidazo[1,2-a]pyridine-3-sulfonamide]"
14,38,"COc1nc(OCC(F)F)c(F)cc1NS(=O)(=O)c1cnc2cc(C(F)(F)F)ccn12 [Example 31, N-[6-(2,2-difluoroethoxy)-5-fluoro-2-methoxy-3-pyridyl]-7-(trifluoromethyl)imidazo[1,2-a]pyridine-3-sulfonamide]"
15,40,"COc1c(C)ccn2c(S(=O)(=O)Nc3cc(F)c(CC#N)cc3F)cnc12 [Example 32, N-[4-(cyanomethyl)-2,5-difluoro-phenyl]-8-methoxy-7-methyl-imidazo[1,2-a]pyridine-3-sulfonamide]"
